Data from patent US20210323985A1, “SHIELDING AGENTS AND THEIR USE” (ENDOCYTE, INC., priority 2018, published 2021).

Key:
LNCaP tumors = assay: Biodistribution of Ia-Lu with or without co-administered shielding agent in nude mice bearing LNCaP tumors; assay type: in vivo; conditions: 4 hours; 30 nmol/kg Ia-Lu; co-administration of 1 μmol/kg shielding agent, vs Ia-Lu alone; FIG. 9
Procedure: FIG. 9 is a chart showing the biodistribution at 4 hours in nude mice bearing LNCaP tumors at 30 nmol/kg of Ia-Lu with or without co-administration of 1 μmol/kg of a shielding agent. […] In the graph for each tissue Ia-Lu alone (left bar), Ia-Lu+compound 1m (middle bar), Ia-Lu+compound 1d (S-enantiomer) (right bar).
(§1) The shielding agents of the present disclosure were administered in combination with an imaging agent of the disclosure, and the biodistribution was analyzed.

22RV1 tumors = assay: Biodistribution of 99mTc imaging conjugate 3a co-administered with a shielding agent in nude mice bearing 22RV1 tumors; assay type: in vivo; conditions: 4 hours; 30 nmol/kg 99mTc imaging conjugate 3a; co-administration of 1 μmol/kg shielding agent; FIG. 8
Procedure: FIG. 8 is a chart showing the biodistribution at 4 hours in nude mice bearing 22RV1 tumors at 30 nmol/kg of ^99mTC imaging conjugate 3a with co-administration of 1 μmol/kg of a shielding agent. […] In the graph for each tissue ^99mTC imaging conjugate 3a+compound 1d (S-enantiomer) (left bar), ^99mTC imaging conjugate 3a+compound 1d (R-enantiomer) (right bar).
as §1

Compound | Ia-Lu tumor to kidney ratio (LNCaP tumors) | 99mTc imaging conjugate 3a tumor to kidney ratio (22RV1 tumors) | activity of shielding agent (comparison of enantiomers) (22RV1 tumors)
CCCCOC(=O)CC[C@H](NC(=O)N[C@@H](CCC(=O)O)C(=O)O)C(=O)O [Compound 1m] | enhanced | – | –
CCCCCCCCCCCCOC(=O)CC[C@@H](CP(=O)(O)O)C(=O)O [1d (S-enantiomer)] | enhanced | enhanced | more active than the R-enantiomer
